The nature of series [1]: Transdermal flux / transdermal delivery from PIB adhesive patch (Franz diffusion cell).
Excerpt: The inventor used a Franz cell for assessing release kinetics, as described below. For testing release kinetics from transdermal monolithic patches, where a semi-solid adhesive matrix is used, the Franz cell has the following components, from top to bottom: (1) Stopper used to seal top of donor compartment; (2) Donor compartment; (3) Patch situated at very bottom of donor compartment, with adhesive side of patch attached to human cadaver skin; (4) Human cadaver skin located immediately under the patch; (5) Receiving compartment, located immediately below the skin. Receiving compartment is filled with ethanol/water solution; (6) Magnetic stirrer located at bottom of receiving compartment.
After receiving the donor human skin, the inventor prepared the skin for testing in a Franz cell by thawing the skin to room temperature, washing in distilled water and cutting in round pieces to fit the diameter of the Franz cell opening. Before placing the patch on the human skin, the inventor dried the skin with a paper tissue. The skin with the attached patch was placed between the Upper Donor Chamber and the Lower Receiving Chamber and clamped tightly. […] The test lasts typically 24 hrs and aliquots of 150 L were withdrawn from the receiving chamber after different periods of time and analyzed via HPLC. […]
Series [2] in a line: Saturation concentration (solubility) of CBD in PIB adhesive, CBD added until turbidity. Type of series: physicochemical. An excerpt:
Regarding peel strength of adhesives, the inventor used judgment and estimation for preparing the patch with 26% of tackifying resin. Escorez 5400 has been used in many adhesives but not in PIB. […] The inventor estimated the peel strength of the formulation with tackifier and without tackifier, by peeling them both from the inventor's own arm skin. To obtain saturation concentration of CBD in the PIB adhesive with 26% of tackifying resin Escorez 5400 the inventor needed to add more CBD to reach turbidity. […] It was the same as the flux from PIB saturated with CBD without tackifier.
This is expected to result in thus greater flux of CBD to a patient, where the dermal patch is in contact with the skin of a patient.

For series [3] the following is noted: as measured at room temperature; cited from earlier work.
The conditions of series [4]: cited from earlier work.

Consider six molecules from US20240075182A1, “ENHANCED DERMAL PATCH FOR TREATING MENSTRUAL PAIN” (REMY BIOSCIENCES, priority 2021, published 2024).

As to `C=C(C)[C@@H]1CCC(C)=C[C@H]1c1c(O)cc(CCCCC)cc1O` [CBD, cannabidiol], in series [1] (PIB adhesive with 26% Escorez 5400 saturated with CBD, versus PIB saturated with CBD without tackifier), the “transdermal flux of CBD” value was “did not increase”. The “concentration of the saturation of CBD in PIB adhesive” value in series [2] (PIB adhesive with 26% of tackifying resin Escorez 5400, CBD added to reach turbidity) is on record as “about 18%”. For the same molecule, the “solubility of CBD in PIB adhesive, effect of Escorez 5400 tackifier” value in series [2] (with Escorez 5400 tackifier versus without) was “increased”.

In the case of `O=S(=O)(O)CCNC1CCCCC1` [CHES], the pKa (in general, the negative logarithm of the acid dissociation constant) in series [3] was 9.5. Regarding `COc1cc(CNC(=O)CCCC/C=C/C(C)C)ccc1O` [Capsaicin, trans-8-methyl-N-vanillyl-6-nonenamide], the water solubility entry in series [4] is reported as “not water-soluble”. Take `O=S(=O)(O)CCN1CCN(CCS(=O)(=O)O)CC1` [PIPES]: the pKa in series [3] is listed as 6.8. Take `OB(O)O` [boric acid]: the pKa in series [3] was 9.2. For the molecule `CCCCCCCC/C=C\CCCCCCCC(=O)O` [oleic acid], the “transdermal delivery from PIB adhesive with enhancer” value in series [1] (enhancer at 3% in PIB adhesive, versus PIB without enhancer) is reported as “double”.
